# Assay results: patent publication US20240317722A1, “HETEROARYL-3-PIPERIDINEDIONE COMPOUND AND USE THEREOF” (Medshine Discovery Inc., priority 2021, published 2024)
# Assay: Pharmacokinetics of the compound in rats
# Assay type: in vivo, SD rats
# Excerpt: In this study, SD male rats were selected as the test animals, and the LC/MS/MS method was used to quantitatively determine the drug concentration at different time points in the plasma of rats intravenously or orally administered the test compound, so as to evaluate the pharmacokinetic profile of the test compound in rats.
# Sprague Dawley (SD) rats (male, 200-300 g, 7-10 weeks old, Beijing Vital River).
# A clear solution or suspension of the test compound was intravenously injected into SD rats (fasted overnight) via tail or given to SD rats (fasted overnight) by gavage. For intravenous injection administration, blood was collected from the jugular vein at 0 h (before administration) and 0.083, 0.25, 0.5, 1, 2, 4, 6, 8, and 24 h after administration. Each sample was collected about 0.25 mL. Heparin sodium was added to anti-coagulate. Blood samples were collected and placed on wet ice, and centrifuged within 1 hour to separate the plasma (centrifugation conditions: 6000 g, 3 minutes, 2-8° C.). Plasma samples were stored in a −80° C. refrigerator before analysis; For oral gavage administration, blood was collected from the jugular vein at 0 h (before administration) and 0.083, 0.25, 0.5, 1, 2, 4, 6, 8, and 24 h after administration. Each sample was collected about 0.25 mL. Heparin sodium was added to anti-coagulate. Blood samples were collected and placed on wet ice, and centrifuged within 1 hour to separate the plasma (centrifugation conditions: 6000 g, 3 minutes, 2-8° C.). Plasma samples were stored in an −80° C. refrigerator before analysis. Through blood drug concentration data at different time points, Phoenix WinNonlin8.2.0 was used to calculate pharmacokinetic parameters, providing parameters such as AUC0-t, AUC0-∞, MRT0-∞, Cmax, Tmax, and T1/2, etc. and their mean and standard deviation.
# [1] = administration by gavage (10 mg/kg)
structure (smiles),measurement,setting,value
COCCOc1cc(NC(=O)NCc2ccc3c(C4CCC(=O)NC4=O)coc3c2)cc(Cl)c1C (centres unmarked) [WX005],Area under the plasma concentration-time curve (0-inf),[1],264.34 µM·h
same,Peak concentration,[1],14.4 µM
same,Time to peak,[1],5.33 h
same,Area under the plasma concentration-time curve (0-inf),intravenous injection (2 mg/kg),464.10 µM·h
same,bioavailability,"male, Sprague-Dawley, rat, plasma, PO 10 mg/kg vs IV 2 mg/kg, read-out: Bioavailability F",11.4%
same,clearance,"male, Sprague-Dawley, rat, plasma, intravenous injection (2 mg/kg)",0.145 mL/min/kg
same,Vd,"male, Sprague-Dawley, rat, plasma, intravenous injection (2 mg/kg), read-out: Apparent volume of distribution",0.121 L/kg
same,half-life,"male, Sprague-Dawley, rat, plasma, intravenous injection (2 mg/kg), read-out: Elimination half-life (converted)",11.1 h
